Key:
[1] = deaths associated with the drug before its withdrawal in August 2001; cited from earlier work
[2] = human, in vivo

Median CK [2] [u/l] | Structure (SMILES) | rhabdomyolysis-related deaths [1]
 | COCc1c(C(C)C)nc(C(C)C)c(/C=C/[C@@H](O)C[C@@H](O)CC(=O)O)c1-c1ccc(F)cc1 [cerivastatin] | approx. 100
84 | CC(C)c1c(C(=O)Nc2ccccc2)c(-c2ccccc2)c(-c2ccc(F)cc2)n1CC[C@@H](O)C[C@@H](O)CC(=O)O [atorvastatin] | 
77 | CCC(C)(C)C(=O)O[C@H]1C[C@@H](C)C=C2C=C[C@H](C)[C@H](CC[C@@H]3C[C@@H](O)CC(=O)O3)[C@H]21 [simvastatin] | 
